Laboratory results taken from US12502355B2, “Solid pharmaceutical formulations of 6-(2-chloro-6-methylpyridin-4-yl)-5-(4-fluorophenyl)-1,2,4-triazin-3-amine” (AstraZeneca AB, priority 2019, dated 2025).
Values after ≈ are worked out from the molar mass of the structure shown.

What was measured:
Assay type in all cases: physicochemical
physchem [1] = experiment: physchem
log P of Compound 1 = experiment: log P of Compound 1
physchem [2] = experiment: physchem; remark: listed apart in the source
[3] = Solubility screens for formulation strategies (lipidic, mesoporous silica, spray drying)
Excerpt: The inventors investigated multiple strategies to make an effective solid formulation, including: • Conventional immediate release tablets. […] Screen of co-crystal former molecules was unsuccessful in identifying a suitable co-crystal form. • Lipid formulation: Compound 1 is a neutral molecule, and not lipophilic.

- pKa (physchem [1]): 1.78
- logP (log P of Compound 1): 2.8
- solubility (physchem [2]; fassif): 5.8 µg/mL (≈ 18.4 µM)
- solubility (physchem [2]; pH 1.2, simulated gastric fluid): 29.8 µg/mL (≈ 94.4 µM)
- solubility (physchem [2]; pH 7, aqueous buffer): < 5 µg/mL
- solubility in solvents suitable for spray drying [3]: limited solubility
- solubility in suitable solvent for mesoporous silica formulation [3]: inadequate
- solubility in suitable excipients for a lipidic formulation ([3]; lipidic screen): did not show significant solubility
Structure (SMILES): Cc1cc(-c2nnc(N)nc2-c2ccc(F)cc2)cc(Cl)n1 [Compound 1, 6-(2-chloro-6-methylpyridin-4-yl)-5-(4-fluorophenyl)-1,2,4-triazin-3-amine]
